Earlier results, collected in patent US10543174B2, “Modified release tablet composition comprising mirabegron” (SYNTHON B.V., priority 2016, dated 2020).

Assays:
[1] = presence of food in the GI tract

Nc1nc(CC(=O)Nc2ccc(CCNC[C@H](O)c3ccccc3)cc2)cs1 [Mirabegron, (R)-2-(2-aminothiazol-4-yl)-4′-[2-[(2-hydroxy-2-phenylethyl)amino]ethyl]acetic acid anilide]
solubility (BCS): high solubility | solubility in water (between neutral to acidic pH, EMA assessment report of Betmiga): soluble | bioavailability, food effect [1]: affected by the presence of food
